The source of these data is patent publication US20260193238A1, “PHARMACEUTICAL COMPOUNDS AS PARP7 AND/OR PARP1 INHIBITORS” (Duke Street Bio Limited, priority 2022, published 2026).

One may read the IC50 as the concentration needed to halve the response being measured. Low values mean greater potency in that assay, high ones weaker potency in that assay.

Chain of PARP1 (P09874 whole entry): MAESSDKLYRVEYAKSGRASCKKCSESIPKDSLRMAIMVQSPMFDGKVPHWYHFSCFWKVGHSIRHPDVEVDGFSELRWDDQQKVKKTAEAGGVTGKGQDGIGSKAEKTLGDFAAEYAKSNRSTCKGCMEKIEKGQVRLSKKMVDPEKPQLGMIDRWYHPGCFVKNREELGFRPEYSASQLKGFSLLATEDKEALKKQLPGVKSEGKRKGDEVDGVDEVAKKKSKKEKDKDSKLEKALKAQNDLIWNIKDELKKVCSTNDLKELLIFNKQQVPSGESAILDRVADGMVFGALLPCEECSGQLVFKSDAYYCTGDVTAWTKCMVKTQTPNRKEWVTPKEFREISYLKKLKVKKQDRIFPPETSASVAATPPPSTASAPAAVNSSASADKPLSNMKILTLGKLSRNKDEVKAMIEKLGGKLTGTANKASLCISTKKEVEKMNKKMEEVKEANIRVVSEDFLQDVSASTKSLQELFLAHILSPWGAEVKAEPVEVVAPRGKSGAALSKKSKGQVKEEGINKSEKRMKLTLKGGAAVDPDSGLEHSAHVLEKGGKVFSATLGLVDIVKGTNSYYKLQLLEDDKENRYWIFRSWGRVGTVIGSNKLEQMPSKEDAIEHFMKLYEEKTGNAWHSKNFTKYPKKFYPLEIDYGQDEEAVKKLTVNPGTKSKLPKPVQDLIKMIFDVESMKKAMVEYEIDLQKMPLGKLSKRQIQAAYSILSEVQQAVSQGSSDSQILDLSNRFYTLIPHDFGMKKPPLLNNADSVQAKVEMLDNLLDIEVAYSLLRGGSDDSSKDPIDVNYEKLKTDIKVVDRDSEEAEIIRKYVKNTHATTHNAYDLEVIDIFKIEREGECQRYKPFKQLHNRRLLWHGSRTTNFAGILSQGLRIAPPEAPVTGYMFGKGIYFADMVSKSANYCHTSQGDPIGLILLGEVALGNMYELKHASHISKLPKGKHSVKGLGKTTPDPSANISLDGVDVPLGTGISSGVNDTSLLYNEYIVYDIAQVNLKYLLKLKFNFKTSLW

The first assay has as its target PARP1 (Homo sapiens, UniProt P09874). Put plainly: PARP1 biochemical DELFIA assay (auto-PARylation). As to conditions: Table 1.
Protocol: Prior to assay, wells were washed 3×5 min in coating wash buffer.
% data was fitted to a non-linear regression equation (log inhibitor vs response-variable slope 4-parameters) to obtain IC50 values.
Take `CCc1cc(C2CCCN(CCC(=O)N3CCN(c4ncc(C(F)(F)F)cn4)CC3)C2)n[nH]c1=O` (single isomer, unassigned) [Compound 6b, 4-ethyl-6-(1-(3-oxo-3-(4-(5-(trifluoromethyl)pyrimidin-2-yl)piperazin-1-yl)propyl)piperidin-3-yl)pyridazin-3(2H)-one]: the IC50 was 0.1 to 1 µM.
Same read-out and setting: under `O=C(CCN1CCCC(c2cc(C(F)(F)F)c(=O)[nH]n2)C1)N1CCN(c2ncc(C(F)(F)F)cn2)CC1` (single isomer, unassigned) [Compound 1a, 6-(1-(3-oxo-3-(4-(5-(trifluoromethyl)pyrimidin-2-yl)piperazin-1-yl)propyl)piperidin-3-yl)-4-(trifluoromethyl)pyridazin-3(2H)-one] stands 0.1 to 1 µM; under `O=C(CCN1CCCC(c2c[nH]c(=O)c(C(F)(F)F)c2)C1)N1CCN(c2ncc(C(F)(F)F)cn2)CC1` (single isomer, unassigned) [Compound 25a], 0.01 to 0.1 µM.
Same read-out and setting: under `N#Cc1ccc(N2CCN(C(=O)CCN3CCCC(c4cc(C(F)(F)F)c(=O)[nH]n4)C3)CC2)nc1` (single isomer, unassigned) [Compound 11b] stands 0.1 to 1 µM; under `O=C(CCN1CCCC(c2c[nH]c(=O)c(C(F)(F)F)c2)C1)N1CCN(c2ncc(C(F)(F)F)cn2)CC1` (single isomer, unassigned) [Compound 25b], 0.01 to 0.1 µM; under `CNC(=O)c1ccc(N2CCN(C(=O)CCN3CCCC(c4cc(C(F)(F)F)c(=O)[nH]n4)C3)CC2)nc1` (single isomer, unassigned) [Compound 28a], 0.1 to 1 µM.
On the same count and under the same terms, then `O=C(CN1CCCC1c1cc(C(F)(F)F)c(=O)[nH]n1)N1CCN(c2ncc(C(F)(F)F)cn2)CC1` (single isomer, unassigned) [Compound 24a, 6-(1-(2-oxo-2-(4-(5-(trifluoromethyl)pyrimidin-2-yl)piperazin-1-yl)ethyl)pyrrolidin-2-yl)-4-(trifluoromethyl)pyridazin-3(2H)-one], with 1 to 10 µM; and `O=C(CN1CCCC1c1cc(C(F)(F)F)c(=O)[nH]n1)N1CCN(c2ncc(C(F)(F)F)cn2)CC1` (single isomer, unassigned) [Compound 24b, 6-(1-(2-oxo-2-(4-(5-(trifluoromethyl)pyrimidin-2-yl)piperazin-1-yl)ethyl)pyrrolidin-2-yl)-4-(trifluoromethyl)pyridazin-3(2H)-one], with 0.01 to 0.1 µM; and `O=C(CCN1CCCC1c1cc(C(F)(F)F)c(=O)[nH]n1)N1CCN(c2ncc(C(F)(F)F)cn2)CC1` (single isomer, unassigned) [Compound 18b, 6-(1-(3-oxo-3-(4-(5-(trifluoromethyl)pyrimidin-2-yl)piperazin-1-yl)propyl)pyrrolidin-2-yl)-4-(trifluoromethyl)pyridazin-3(2H)-one], with 0.01 to 0.1 µM.
In turn, `O=C(CN1CCN(c2ncc(C(F)(F)F)cn2)CC1)N1CCCC1c1cc(C(F)(F)F)c(=O)[nH]n1` (single isomer, unassigned) [Compound 32b] yielded an IC50 of over 10 µM.

Still in this assay, the particulars now being: Table 1A.
With `O=C(CN1Cc2ccccc2C1c1cc(C(F)(F)F)c(=O)[nH]n1)N1CCN(c2ncc(C(F)(F)F)cn2)CC1` (single isomer, unassigned) [Compound 104a, 6-(2-(2-oxo-2-(4-(5-(trifluoromethyl)pyrimidin-2-yl)piperazin-1-yl)ethyl)isoindolin-1-yl)-4-(trifluoromethyl)pyridazin-3(2H)-one], the IC50 was in the range of 0.1 to 1 µM.
Still for that read-out and setting: under `N#Cc1cnc(N2CCN(C(=O)CN3CCCC3c3cc(C(F)(F)F)c(=O)[nH]n3)CC2)c(C(F)(F)F)c1` (single isomer, unassigned) [Compound 124b] stands 1 to 10 µM.
On the same count and under the same terms, then `O=C(CN1CCCC1c1cc(C(F)(F)F)c(=O)[nH]n1)N1CCN(c2ccc(OC(F)(F)F)cn2)CC1` (single isomer, unassigned) [Compound 81b], with 0.01 to 0.1 µM; and `O=C(CN1CCCC1c1cc(C(F)(F)F)c(=O)[nH]n1)N1CCN(c2ncc(OC(F)F)cn2)CC1` (single isomer, unassigned) [Compound 118b], with 1 to 10 µM; and `O=C(CN1CCCC1c1cc(C(F)(F)F)c(=O)[nH]n1)N1CCN(c2ncc(F)cc2C(F)(F)F)CC1` (single isomer, unassigned) [Compound 120b], with over 10 µM.
As to `O=C(CN1CCCC1c1cc(C(F)(F)F)c(=O)[nH]n1)N1CCN(c2ncc(F)cc2Cl)CC1` (single isomer, unassigned) [Compound 116b], the IC50 fell in the range of 1 to 10 µM.
In turn, `COC1CC(c2cc(C(F)(F)F)c(=O)[nH]n2)N(CC(=O)N2CCN(c3ncc(C(F)(F)F)cn3)CC2)C1` (single isomer, unassigned) [Compound 138cis2, 6-(4-methoxy-1-(2-oxo-2-(4-(5-(trifluoromethyl)pyrimidin-2-yl)piperazin-1-yl)ethyl)pyrrolidin-2-yl)-4-(trifluoromethyl)pyridazin-3(2H)-one] gave an IC50 of 1 to 10 µM.
On the same count and under the same terms, under `N#Cc1cnc(N2CCN(C(=O)CN3CCCC3c3c[nH]c(=O)c(C(F)(F)F)c3)CC2)nc1` (single isomer, unassigned) [Compound 76a] stands 1 to 10 µM.
For the compound `O=C(CN1CCOCC1c1cc(C(F)(F)F)c(=O)[nH]n1)N1CCN(c2ncc(C(F)(F)F)cn2)CC1` (single isomer, unassigned) [Compound 88a], the IC50 lay within 0.1 to 1 µM.
Regarding `CC1(C)CC(c2cc(C(F)(F)F)c(=O)[nH]n2)CN(CCC(=O)N2CCN(c3ncc(C(F)(F)F)cn3)CC2)C1` (single isomer, unassigned) [Compound 87b], the IC50 is 0.01 to 0.1 µM.
`N#Cc1ccc2nc(N3CCN(C(=O)CN4CCCC4c4cc(C(F)(F)F)c(=O)[nH]n4)CC3)oc2c1` (single isomer, unassigned) [Compound 96b] registered an IC50 of at most 0.01 µM.
In the case of `CC(C)(C)c1cnc(N2CCN(C(=O)CN3CCCC3c3cc(C(F)(F)F)c(=O)[nH]n3)CC2)nc1` (single isomer, unassigned) [Compound 82a], the half-inhibitory concentration (IC50) was 0.01 to 0.1 µM.
The compound `O=C(CN1CCCC1c1cc(C(F)(F)F)c(=O)[nH]n1)N1CCN(c2nc3cc(F)ccc3o2)CC1` (single isomer, unassigned) [Compound 93b] displayed a half-maximal inhibitory concentration (IC50) of 1 to 10 µM.
Still for that read-out and setting: then `Cc1[nH]c(=O)c(C(F)(F)F)cc1C1CCCN1CC(=O)N1CCN(c2ncc(C(F)(F)F)cn2)CC1` (single isomer, unassigned) [Compound 102b, 6-methyl-5-(1-(2-oxo-2-(4-(5-(trifluoromethyl)pyrimidin-2-yl)piperazin-1-yl)ethyl)pyrrolidin-2-yl)-3-(trifluoromethyl)pyridin-2(1H)-one], with 1 to 10 µM; and `N#Cc1ccc2oc(N3CCN(C(=O)CN4CCCC4c4cc(C(F)(F)F)c(=O)[nH]n4)CC3)nc2c1` (single isomer, unassigned) [Compound 100a], with 0.01 to 0.1 µM; and `O=C(CN1CCCC1c1cc(C(F)(F)F)c(=O)[nH]n1)N1CCN(c2ccc(C(F)F)cn2)CC1` (single isomer, unassigned) [Compound 126b], with 1 to 10 µM.
Same read-out and setting: under `CCc1cc(C2CCCN2CC(=O)N2CCN(c3ncc(C(F)(F)F)cn3)CC2)n[nH]c1=O` (single isomer, unassigned) [Compound 40a] stands 0.01 to 0.1 µM; under `CCc1cc(C2CCCN2CC(=O)N2CCN(c3ncc(C(F)(F)F)cn3)CC2)c[nH]c1=O` (single isomer, unassigned) [Compound 57b], 1 to 10 µM; under `O=C(CCN1CCC(c2cc(C(F)(F)F)c(=O)[nH]n2)CC1)N1CCN(c2ncc(C(F)(F)F)cn2)CC1` [Compound 61], 0.1 to 1 µM.
